How the values were obtained:
Format in all cases: functional
[1] = system: Candida albicans; assay: Antifungal activity against Candida albicans by cup-plate method
[2] = system: Klebsiella pneumoniae; assay: Antibacterial activity against Klebsiella pneumoniae by cup-plate method
[3] = system: Metaphire posthuma; assay: Antihelminthic activity against Metaphire posthuma assessed as time of occurrence of paralysis
[4] = system: Staphylococcus aureus; assay: Antibacterial activity against Staphylococcus aureus by cup-plate method
[5] = system: Metaphire posthuma; assay: Antihelminthic activity against Metaphire posthuma assessed as time of occurrence of death
[6] = system: Aspergillus niger; assay: Antifungal activity against Aspergillus niger by cup-plate method

Row | SMILES | inhibition zone (IZ) [1] | inhibition zone (IZ) [2] | Time [3] | inhibition zone (IZ) [4] | Time [5] | inhibition zone (IZ) [6]
1 | CC(=O)Nc1ccc(S(=O)(=O)N2CCN(CCCC3C(C)=NCCN=C3C)CC2)cc1 | 21 mm | 21 mm | 92 min | 19 mm | 103 min | 19 mm
2 | CC(=O)Nc1ccc(S(=O)(=O)N2CCN(CCCC3C(c4ccccc4)=NCCN=C3c3ccccc3)CC2)cc1 | 19 mm | 19 mm | 93 min | 17 mm | 110 min | 18 mm
3 | CC(=O)Nc1ccc(S(=O)(=O)N2CCN(CCCC3C(C)=NCCN=C3c3ccccc3)CC2)cc1 (stereo unspecified) | 20 mm | 19 mm | 91 min | 20 mm | 111 min | 20 mm
4 | CC(=O)Nc1ccc(S(=O)(=O)N2CCN(CCCC3C(=O)NCCN=C3C)CC2)cc1 (stereo unspecified) | 16 mm | 17 mm | 102 min | 16 mm | 119 min | 17 mm
5 | CC(=O)Nc1ccc(S(=O)(=O)N2CCN(CCCC3C(=O)NCCNC3=O)CC2)cc1 | 13 mm | 15 mm | 103 min | 13 mm | 122 min | 15 mm
6 | Cc1cc(C2CCCCC2)n(O)c(=O)c1.NCCO [CICLOPIROX OLAMINE] | 24 mm | – | – | – | – | 22 mm
7 | O=C(O)c1cn(C2CC2)c2cc(N3CCNCC3)c(F)cc2c1=O [CIPROFLOXACIN] | – | 26 mm | – | 24 mm | – | –
8 | C1CNCCN1.C1CNCCN1.C1CNCCN1.O.O=C(O)CC(O)(CC(=O)O)C(=O)O.O=C(O)CC(O)(CC(=O)O)C(=O)O [PIPERAZINE CITRATE] | – | – | 100 min | – | 125 min | –

Reference: ChEMBL document CHEMBL3045277, “Synthesis and biological activity of novel 1H-1,4-diazepines containing benzene sulfonyl piperazine moiety” (2011)
